Measured values from patent EP0313846B1, “Method for controlling chronic respiratory disease, and necrotic enteritis in avian species” (AMERICAN CYANAMID COMPANY, priority 1987, dated 1989).
≈ marks a conversion by molar mass, not a printed value. Read-outs that look alike come from different tables or passages of the source.

Assays:
Mycoplasma gallisepticum = assay: Treatment of Mycoplasma gallisepticum caused chronic respiratory disease in poultry; type: in vivo; conditions: for Final Mean Body Weight (g) of Survivors / Overall % Mortality / Overall Feed-to-Gain: 7 days pre- and 7 days postchallenge; for Final Mean Body Weight (g) of Survivors / Overall % Mortality / Overall Feed-to-Gain / Mean Air Sac Lesion Scores: M. gallisepticum challenged birds; for Mean Air Sac Lesion Scores: score 0-3
Procedure: This study is conducted to evaluate the efficacy of antibiotic LL-E19020α against Mycoplasma gallisepticum caused chronic respiratory disease in poultry. The antibiotic is fed continuously at 10 and 50 g/ton for 7 days pre- and 7 days postchallenge. Birds similarly fed a diet containing 100 g/ton chlortetracycline serve as a positive control group. Infected and noninfected, nonmedicated control groups are also included. After 7 days on respective treatment diets, birds are challenged with M. gallisepticum (MG) into the right and left post-thoracic air sacs. The air sacs are cultured for the presence of Mycoplasma from all birds dying postchallenge. The air sacs of all birds are scored based on gross lesions upon necropsy at death or at study end. Survivors at study end are bled prior to necropsy for Mycoplasma gallisepticum serology testing. Body weight and feed intake measurements are made at specified intervals during the study.

[1] = system: Mycoplasma gallisepticum "R"; assay: Minimum inhibitory concentration assay for Mycoplasma gallisepticum (microdilution, Table VI); type: cell-based; conditions: Mycoplasmoides gallisepticum
Procedure: • 1. […] Both cultures are incubated at 37°C. […] Appropriate solvent controls are also included. • 4.

Streptococcus agalactiae = assay: Minimum inhibitory concentration by agar dilution (Table V); type: cell-based; conditions: Streptococcus agalactiae (4 strains tested)
[2] = system: Bordetella bronchiseptica; assay: as above; type: cell-based; conditions: Bordetella bronchiseptica (4 strains tested)
Escherichia coli = assay: as above; type: cell-based; conditions: Escherichia coli (2 strains tested)
[3] = system: Clostridium perfringens ATCC 13124; type: cell-based; conditions: 18 hours incubation
Streptococcus pyogenes = assay: Minimum inhibitory concentration by agar dilution (Table V); type: cell-based; conditions: Streptococcus pyogenes (2 strains tested)
Pasteurella haemolytica = assay: as above; type: cell-based; conditions: Pasteurella haemolytica (3 strains tested)
[4] = system: Staphylococcus aureus Smith; assay: In vivo antibacterial activity in infected mice (Table III); design: species or system female CD-1 mice; conditions: S. aureus Smith, 30 minutes before infection
Streptococcus uberis = assay: Minimum inhibitory concentration by agar dilution (Table V); type: cell-based; conditions: Streptococcus uberis (1 strain tested)
Treponema hyodysenteriae [5] = assay: T. hyodysenteriae disk test (primary in vitro disk diffusion test); type: cell-based; conditions: disks soaked in 2.5 mg/ml solution, zones of inhibited hemolysis
Streptococcus faecalis = assay: Minimum inhibitory concentration by agar dilution (Table V); type: cell-based; conditions: Streptococcus faecalis (1 strain tested)
[6] = system: Clostridium perfringens type C; type: in vivo, broiler chicks; conditions: infected chicks, treatment mean; for Lesion Scores: intestinal lesion score 0-4, day 19
Salmonella choleraesuis = assay: Minimum inhibitory concentration by agar dilution (Table V); type: cell-based; conditions: Salmonella choleraesuis (2 strains tested)
Staphylococcus aureus = assay: as above; type: cell-based; conditions: Staphylococcus aureus (7 strains tested)
Treponema hyodysenteriae [7] = assay: Minimum inhibitory concentration by microdilution (Table VI); type: cell-based
Peptococcus magnus = assay: In vitro antibacterial activity, standard agar dilution method (Table II); type: cell-based; conditions: 18 hours incubation
Procedure: (§1) The in vitro antibacterial activity of LL-E19020α and β was determined against a spectrum of gram-positive and gram-negative bacteria by a standard agar dilution method. Mueller-Hinton agar containing 5% sheep blood and two-fold decreasing concentrations of either LL-E19020α or β were poured into petri dishes. The agar surfaces were inoculated with 1 to 5x10⁴ colony forming units of bacteria by means of the Steers replicating device. The lowest concentration of antibiotic that inhibited growth of a bacterial strain after 18 hours incubation was recorded as the minimal inhibitory concentration for that strain.

[8] = system: Clostridium difficile ATCC 17858; assay: as above; type: cell-based; conditions: 18 hours incubation
Procedure: as §1

Streptococcus pneumoniae = assay: as above; type: cell-based; conditions: 18 hours incubation
Procedure: as §1

[9] = system: Streptococcus sp. (β-hemolytic); assay: as above; type: cell-based; conditions: 18 hours incubation
Procedure: as §1

[10] = system: Streptococcus pyogenes C203; assay: In vivo antibacterial activity in infected mice (Table III); design: species or system female CD-1 mice; conditions: S. pyogenes C203, mice, 30 minutes before infection
[11] = system: Pasteurella haemolytica 30660; assay: Pasteurella disk test (primary in vitro disk diffusion test); type: cell-based; conditions: disks soaked in 2.5 mg/ml solution of test compound, zones of inhibition
Procedure: (§2) Zones of inhibition are recorded.

[12] = system: Pasteurella multocida 31081B; assay: as above; type: cell-based; conditions: disks soaked in 2.5 mg/ml solution of test compound, zones of inhibition
Procedure: as §2

[13] = 100 g/ton in feed (positive control)
[14] = 50 grams per ton of feed, Mycoplasma gallisepticum infected chicks
[15] = single subcutaneous dose 4 mg/kg
[16] = single subcutaneous dose 16 mg/kg
[17] = single subcutaneous dose 64 mg/kg
[18] = Treponema hyodysenteriae B78 (ATCC 27164)
[19] = Treponema hyodysenteriae B204 (ATCC 31212)

CN(C)[C@@H]1C(O)=C(C(N)=O)C(=O)[C@@]2(O)C(O)=C3C(=O)c4c(O)ccc(Cl)c4[C@@](C)(O)[C@H]3C[C@@H]12 [CTC, Chlortetracycline, reference compound]
Final Mean Body Weight (g) of Survivors (Mycoplasma gallisepticum; [13]): 398 g
Overall % Mortality (Mycoplasma gallisepticum; [13]): 25.0%
Overall Feed-to-Gain (Mycoplasma gallisepticum; [13]): 1.83
Mean Air Sac Lesion Scores (Mycoplasma gallisepticum; [13]): 1.88
MIC [1]: 0.5 µg/mL (≈ 1.04 µM)

C/C=C\C=C\[C@@H]1O[C@](O)([C@H](CO[C@H]2C[C@@H](OC)[C@@H](O[C@@H]3C[C@@H](OC)[C@@H](O[C@H]4C[C@H](OC)[C@H](O)[C@H](C)O4)[C@H](C)O3)[C@@H](C)O2)C(=O)NC/C=C/C=C(\C)[C@@H](OC)[C@H](C)[C@H]2C[C@H](O)[C@H](/C=C/C=C/C=C/C(=O)O)O2)[C@H](OC(=O)Cc2ccccc2)[C@H](O)C1(C)C [LL-E19020α]
MIC (Streptococcus agalactiae): 2 to 8 µg/mL
MIC [2]: >256 µg/mL
MIC (Escherichia coli): ≧256 µg/ml
Final Mean Body Weight (g) of Survivors (Mycoplasma gallisepticum; 10 g/ton in feed): 336 g
Overall % Mortality (Mycoplasma gallisepticum; 10 g/ton in feed): 41.3%
Overall Feed-to-Gain (Mycoplasma gallisepticum; 10 g/ton in feed): 1.88
Mean Air Sac Lesion Scores (Mycoplasma gallisepticum; 10 g/ton in feed): 2.04
Final Mean Body Weight (g) of Survivors (Mycoplasma gallisepticum; 50 g/ton in feed): 349 g
Overall % Mortality (Mycoplasma gallisepticum; 50 g/ton in feed): 36.3%
Overall Feed-to-Gain (Mycoplasma gallisepticum; 50 g/ton in feed): 1.84
Mean Air Sac Lesion Scores (Mycoplasma gallisepticum; 50 g/ton in feed): 2.11
feed to gain ratios compared with infected nonmedicated chicks (Mycoplasma gallisepticum; [14]): better feed to gain ratios
mortality compared with infected nonmedicated chicks (Mycoplasma gallisepticum; [14]): less mortality
weight gain compared with infected nonmedicated chicks (Mycoplasma gallisepticum; [14]): better weight gain
Minimal Inhibitory Concentration [3]: 16 µg/mL
MIC (Streptococcus pyogenes): 2 µg/mL (≈ 1.63 µM)
MIC (Pasteurella haemolytica): 16 µg/mL (≈ 13 µM)
Survival Ratios 7 Days After Infection [4, 15]: 2/5
Survival Ratios 7 Days After Infection [4, 16]: 3/5
Survival Ratios 7 Days After Infection [4, 17]: 3/5
Survival Ratios 7 Days After Infection ([4]; single subcutaneous dose 256 mg/kg): 3/5
MIC (Streptococcus uberis): 8 µg/mL (≈ 6.52 µM)
ZONE SIZE (Treponema hyodysenteriae [5]; [18]): 0 mm
ZONE SIZE (Treponema hyodysenteriae [5]; [19]): 15 mm
MIC (Streptococcus faecalis): 8 µg/mL (≈ 6.52 µM)
% Mortality ([6]; 5 ppm): 2.5%
Feed/Gain ([6]; 5 ppm): 1.97
Final Weight ([6]; 5 ppm): 639.2
Lesion Scores ([6]; 5 ppm): 0.35
% Mortality ([6]; 50 ppm): 2.5%
Feed/Gain ([6]; 50 ppm): 1.80
Final Weight ([6]; 50 ppm): 699.4
Lesion Scores ([6]; 50 ppm): 0.38
MIC (Salmonella choleraesuis): >256 µg/mL
MIC (Staphylococcus aureus): ≧256 µg/ml
MIC (Treponema hyodysenteriae [7]; [18]): 1 µg/mL (≈ 0.815 µM)
MIC (Treponema hyodysenteriae [7]; [19]): 1 µg/mL (≈ 0.815 µM)
Minimal Inhibitory Concentration (Peptococcus magnus; Peptococcus magnus ATCC 14956): 0.12 µg/mL
Minimal Inhibitory Concentration (Peptococcus magnus; Peptococcus magnus ATCC 29328): 0.12 µg/mL
Minimal Inhibitory Concentration [8]: 4 µg/mL
Minimal Inhibitory Concentration (Streptococcus pneumoniae; Streptococcus pneumoniae SVI): 1 µg/mL
Minimal Inhibitory Concentration (Streptococcus pneumoniae; Streptococcus pneumoniae VGH-84-56): 1 µg/mL
Minimal Inhibitory Concentration (Streptococcus pneumoniae; Streptococcus pneumoniae VGH-84-57): 2 µg/mL
Minimal Inhibitory Concentration (Streptococcus pneumoniae; Streptococcus pneumoniae VGH-84-58): 0.25 µg/mL
Minimal Inhibitory Concentration (Streptococcus pneumoniae; Streptococcus pneumoniae VGH-84-59): 0.25 µg/mL
Minimal Inhibitory Concentration ([9]; Streptococcus sp. (β-hemolytic) C203): 0.5 µg/mL
Minimal Inhibitory Concentration ([9]; Streptococcus sp. (β-hemolytic) VGH-84-60): 0.25 µg/mL
Minimal Inhibitory Concentration ([9]; Streptococcus sp. (β-hemolytic) VGH-84-61): 1 µg/mL
Minimal Inhibitory Concentration ([9]; Streptococcus sp. (β-hemolytic) VGH-84-62): 1 µg/mL
Minimal Inhibitory Concentration ([9]; Streptococcus sp. (β-hemolytic) VGH-84-63): 0.12 µg/mL
Minimal Inhibitory Concentration ([9]; Streptococcus sp. (β-hemolytic) VGH-84-64): 0.12 µg/mL
Survival Ratios 7 Days After Infection [10, 15]: 2/5
Survival Ratios 7 Days After Infection ([10]; single subcutaneous dose 8 mg/kg): 4/5
Survival Ratios 7 Days After Infection [10, 16]: 5/5
Survival Ratios 7 Days After Infection ([10]; single subcutaneous dose 32 mg/kg): 5/5
Survival Ratios 7 Days After Infection [10, 17]: 5/5
ZONE SIZE [11]: 13 mm
ZONE SIZE [12]: 15 mm
